This is an account of results in patent US12516046B2, “2-oxo-oxazolidine-5-carboxamides as NAV1.8 inhibitors” (Merck Sharp & Dohme LLC, priority 2020, dated 2026).

Molecules are shown by their SMILES.

Sequence of human Nav1.8 (Q9Y5Y9 whole entry): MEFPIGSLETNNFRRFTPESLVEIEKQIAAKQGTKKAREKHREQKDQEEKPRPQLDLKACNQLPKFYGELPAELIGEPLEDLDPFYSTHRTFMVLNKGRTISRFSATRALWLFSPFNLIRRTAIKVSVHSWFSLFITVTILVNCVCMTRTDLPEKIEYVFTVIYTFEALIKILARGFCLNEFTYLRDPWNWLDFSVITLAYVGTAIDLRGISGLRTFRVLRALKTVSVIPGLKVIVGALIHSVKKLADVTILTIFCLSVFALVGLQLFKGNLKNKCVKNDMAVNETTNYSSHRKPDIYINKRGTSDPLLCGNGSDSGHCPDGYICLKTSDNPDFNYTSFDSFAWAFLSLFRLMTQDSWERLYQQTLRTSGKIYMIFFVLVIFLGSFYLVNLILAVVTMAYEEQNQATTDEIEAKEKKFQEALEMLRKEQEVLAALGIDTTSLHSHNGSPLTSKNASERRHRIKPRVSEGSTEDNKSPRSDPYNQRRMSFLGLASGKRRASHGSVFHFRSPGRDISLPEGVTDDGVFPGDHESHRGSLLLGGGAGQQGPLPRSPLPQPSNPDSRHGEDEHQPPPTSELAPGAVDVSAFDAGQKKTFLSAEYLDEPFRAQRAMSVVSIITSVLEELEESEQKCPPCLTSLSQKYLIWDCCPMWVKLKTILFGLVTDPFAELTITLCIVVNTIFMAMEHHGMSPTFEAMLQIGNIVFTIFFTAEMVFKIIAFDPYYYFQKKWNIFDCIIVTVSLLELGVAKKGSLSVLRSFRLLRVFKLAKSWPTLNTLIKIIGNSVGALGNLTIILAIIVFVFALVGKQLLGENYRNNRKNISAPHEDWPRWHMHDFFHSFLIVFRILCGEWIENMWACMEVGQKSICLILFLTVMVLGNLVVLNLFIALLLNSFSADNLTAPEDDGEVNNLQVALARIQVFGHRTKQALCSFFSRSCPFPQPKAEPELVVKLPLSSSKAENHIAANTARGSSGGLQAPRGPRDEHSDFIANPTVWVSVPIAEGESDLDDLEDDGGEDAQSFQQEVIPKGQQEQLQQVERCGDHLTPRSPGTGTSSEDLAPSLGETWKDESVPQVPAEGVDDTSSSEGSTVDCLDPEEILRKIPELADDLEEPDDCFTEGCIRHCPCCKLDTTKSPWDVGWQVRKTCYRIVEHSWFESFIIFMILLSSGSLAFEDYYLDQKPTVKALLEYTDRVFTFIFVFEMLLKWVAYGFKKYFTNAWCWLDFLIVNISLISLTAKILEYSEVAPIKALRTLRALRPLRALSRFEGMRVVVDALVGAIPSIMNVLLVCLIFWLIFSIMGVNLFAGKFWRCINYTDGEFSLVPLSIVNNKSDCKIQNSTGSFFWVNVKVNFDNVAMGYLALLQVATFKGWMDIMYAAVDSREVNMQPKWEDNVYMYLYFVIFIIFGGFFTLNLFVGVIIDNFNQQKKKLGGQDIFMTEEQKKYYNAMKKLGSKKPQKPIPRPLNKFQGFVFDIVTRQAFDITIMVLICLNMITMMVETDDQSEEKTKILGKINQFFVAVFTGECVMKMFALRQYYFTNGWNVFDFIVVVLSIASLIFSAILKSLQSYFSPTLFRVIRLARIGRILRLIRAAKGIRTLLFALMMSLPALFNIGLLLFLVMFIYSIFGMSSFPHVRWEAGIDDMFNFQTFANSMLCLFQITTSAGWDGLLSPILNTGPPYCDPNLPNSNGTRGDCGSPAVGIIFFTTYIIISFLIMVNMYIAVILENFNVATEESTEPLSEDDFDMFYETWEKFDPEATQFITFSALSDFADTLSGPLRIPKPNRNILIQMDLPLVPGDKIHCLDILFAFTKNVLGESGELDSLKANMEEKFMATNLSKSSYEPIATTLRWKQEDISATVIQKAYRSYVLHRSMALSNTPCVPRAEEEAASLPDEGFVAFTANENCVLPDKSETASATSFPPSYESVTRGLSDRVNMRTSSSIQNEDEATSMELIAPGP

The experiment addresses human Nav1.8 (Homo sapiens (Human), UniProt Q9Y5Y9). The experiment can be described thus: Nav1.8 Qube® Assay (automated 384-well patch-clamp). It is filed as cell-based. Particulars: human Nav1.8 channels stably expressed in HEK 293 cells. An excerpt:
Qube® Assay Experimental Procedure
`O=C1NC[C@@H](C(=O)NC(c2ccc(OC(F)(F)F)c(Cl)c2)c2coc(C(F)(F)F)n2)O1` (single isomer, unassigned) [Example 51B, (S)-N-((R or S)-(3-chloro-4-(trifluoro-methoxy)phenyl)(2-(trifluoromethyl)oxazol-4-yl)methyl)-2-oxooxazolidine-5-carboxamide] showed an IC50 of 3.7 nM.

The compound `COc1ccc(Cl)cc1C(NC(=O)[C@@H]1CNC(=O)O1)c1cccc(Cl)c1` (single isomer, unassigned) [Example 28A, (S)-N-((R or S)-(5-chloro-2-methoxyphenyl)(3-chlorophenyl)methyl)-2-oxooxazolidine-5-carboxamide] came in with an IC50 of 21 nM.

For the compound `O=C1NC[C@@H](C(=O)NC(c2ccc(Cl)cc2)C23CC(C(F)(F)F)(C2)C3)O1` (single isomer, unassigned) [Example 4B, (S)-N-((R or S)-(4-chlorophenyl)(3-(trifluoromethyl)bicyclo[1.1.1]pentan-1-yl)methyl)-2-oxooxazolidine-5-carboxamide], the midpoint of inhibition, the IC50, lay at 312 nM. Compared with the last compound, the IC50 is about 15-fold higher.

Turning to `O=C1NC[C@@H](C(=O)NC(c2ccc(Cl)cc2)C23CCC(CC2)C3)O1` (single isomer, unassigned) [Example 3A, (S)-N-((R or S)-bicyclo[2.2.1]heptan-1-yl(4-chlorophenyl)methyl)-2-oxooxazolidine-5-carboxamide], 133 nM corresponded to half-maximal inhibition (IC50).

With `O=C1NC[C@@H](C(=O)NC(c2ccc(Cl)c(C(F)(F)F)n2)C2CCC(F)(F)CC2)O1` (single isomer, unassigned) [Example 63A, (S)-N-((R or S)-(5-chloro-6-(trifluoromethyl)pyridin-2-yl)(4,4-difluoro-cyclohexyl)methyl)-2-oxooxazolidine-5-carboxamide], inhibition was half-maximal at 12 nM (IC50).

Take `Cc1cc(C(NC(=O)[C@@H]2CNC(=O)O2)c2ccc(Cl)cc2)ccc1Cl` (single isomer, unassigned) [Example 46B, (S)-N-((R or S)-(4-chloro-3-methylphenyl)(4-chlorophenyl)methyl)-2-oxooxazolidine-5-carboxamide]: the 50% inhibitory concentration (IC50) turned out to be 1.8 nM. Compared with the last compound, the IC50 is about 6.7-fold lower.

Compound `O=C1NC[C@@H](C(=O)NC(c2ccc(OC(F)(F)F)c(Cl)c2)c2ccnc(C(F)(F)F)n2)O1` (single isomer, unassigned) [Example 52B, (S)-N-((R or S)-(3-chloro-4-(trifluoromethoxy)phenyl)(2-(trifluoro-methyl)pyrimidin-4-yl)methyl)-2-oxooxazolidine-5-carboxamide] came in with an IC50 of 13 nM. Against the preceding compound, the IC50 is about 7.2-fold higher.

In the case of `O=C1NC[C@@H](C(=O)NC(c2ccc(OC(F)F)cc2)c2ccc(F)c(Cl)c2)O1` (single isomer, unassigned) [Example 48A, (S)-N-((R or S)-(3-chloro-4-fluorophenyl)(4-(difluoromethoxy)phenyl)methyl)-2-oxooxazolidine-5-carboxamide], the IC50 stood at 2.7 nM. Compared with the last compound, the IC50 is about 4.8-fold lower.

Regarding `O=C1NC[C@@H](C(=O)NC(c2ccc(Cl)cc2)c2cccs2)O1` (stereo partly drawn) [Example 24, (5S)-N-((4-chlorophenyl)(thio-phen-2-yl)methyl)-2-oxooxazolidine-5-carboxamide], 144 nM corresponded to half-maximal inhibition (IC50). This IC50 is about 53-fold higher than that of the compound before.

For `CC1(C(=O)NC(c2ccc(Cl)cc2)c2ccc(Cl)cc2)CNC(=O)O1` (single isomer, unassigned) [Example 7A, (R or S)—N-(bis(4-chlorophenyl)methyl)-5-methyl-2-oxooxazolidine-5-carboxamide], 14900 nM corresponded to half-maximal inhibition (IC50).

As to `O=C1NC[C@@H](C(=O)NC(c2cncc(Cl)c2)c2ccc(F)c(Cl)c2)O1` (single isomer, unassigned) [Example 13A, (S)-N-((R or S)-(3-chloro-4-fluorophenyl)(5-chloropyridin-3-yl)methyl)-2-oxooxazolidine-5-carboxamide], the IC50 is 573 nM.

In the case of `O=C1NC[C@@H](C(=O)NC(c2ccc(Cl)cc2)c2ccnc(C(F)(F)F)n2)O1` (single isomer, unassigned) [Example 11B, (S)-N-((R or S)-(4-chlorophenyl)(2-(trifluoromethyl)pyrimidin-4-yl)methyl)-2-oxooxazolidine-5-carboxamide], the IC50 came to 399 nM.

`COc1cc(Cl)ccc1C(NC(=O)[C@@H]1CNC(=O)O1)c1ccc(F)cc1` (single isomer, unassigned) [Example 55B, (S)—N—((R or S)-(4-chloro-2-methoxyphenyl)(4-fluorophenyl)methyl)-2-oxooxazolidine-5-carboxamide]: the IC50 came to 4.7 nM.

`COc1ncccc1C(NC(=O)[C@@H]1CNC(=O)O1)c1ccc(F)c(Cl)c1` (single isomer, unassigned) [Example 58A, (S)-N-((R or S)-(3-chloro-4-fluorophenyl)(2-methoxypyridin-3-yl)methyl)-2-oxooxazolidine-5-carboxamide] had an IC50 of 12 nM.

Consider `O=C1NC[C@@H](C(=O)NC(c2ccc(Cl)cc2)C2CCC(F)(F)C2)O1` (single isomer, unassigned) [Example 57A, (S)-N-((R or S)-(4-chlorophenyl)((R or S)-3,3-difluorocyclopentyl)methyl)-2-oxooxazolidine-5-carboxamide], for which half-maximal inhibition (IC50) was put at 3450 nM.

`O=C1NC[C@@H](C(=O)NC(c2ccc(Cl)cc2)c2cccc3ccccc23)O1` (stereo partly drawn) [Example 30, (5S)-N-((4-chlorophenyl) (naphthalen-1-yl)methyl)-2-oxooxazolidine-5-carboxamide] came in with an IC50 of 2.4 nM. Against the preceding compound, the IC50 is about 1400-fold lower.

As for `O=C1NC[C@@H](C(=O)NC(c2ccc(Cl)cc2)c2ccc(Cl)c(C(F)(F)F)n2)O1` (single isomer, unassigned) [Example 2A, (S)—N—((R or S)-(5-chloro-6-(trifluoromethyl)pyridin-2-yl)(4-chlorophenyl)methyl)-2-oxooxazolidine-5-carboxamide], half-maximal inhibition (IC50) was put at 0.6 nM. Against the preceding compound, the IC50 is about 4-fold lower.

The compound `CC(C)c1cccc(C(NC(=O)[C@@H]2CNC(=O)O2)c2ccc(Cl)cc2)c1` (single isomer, unassigned) [Example 32B, (S)-N-((R or S)-(4-chlorophenyl)(3-isopropylphenyl)methyl)-2-oxooxazolidine-5-carboxamide] registered an IC50 of 12 nM.

As for `O=C1NC[C@@H](C(=O)NC(c2ccc(F)c(Cl)c2)C2CCN(CC(F)(F)F)C2)O1` (single isomer, unassigned) [Example 43B, (S)-N-((R or S)-(3-chloro-4-fluorophenyl)((R or S)-1-(2,2,2-trifluoroethyl)pyrrolidin-3-yl)methyl)-2-oxooxazolidine-5-carboxamide], the midpoint of inhibition, the IC50, lay at 807 nM.

In turn, `CC(C)c1cccc(C(NC(=O)[C@@H]2CNC(=O)O2)c2ccc(Cl)cc2)c1` (single isomer, unassigned) [Example 32A, (S)-N-((R or S)-(4-chlorophenyl)(3-isopropylphenyl)methyl)-2-oxooxazolidine-5-carboxamide] displayed an IC50 of 5 nM. Compared with the last compound, the IC50 is about 160-fold lower.

Consider `Cn1nc(C(F)(F)F)cc1C(NC(=O)[C@@H]1CNC(=O)O1)c1ccc(F)c(Cl)c1` (single isomer, unassigned) [Example 61A, (S)-N-((R or S)-(3-chloro-4-fluorophenyl)(1-methyl-3-(trifluoromethyl)-1H-pyrazol-5-yl)methyl)-2-oxooxazolidine-5-carboxamide], for which half-maximal inhibition (IC50) required 4.6 nM.

`O=C1NC[C@@H](C(=O)NC(c2ccc(F)c(Cl)c2)c2cccc(C(F)(F)F)n2)O1` (single isomer, unassigned) [Example 49B, (S)-N-((R or S)-(3-chloro-4-fluorophenyl)(6-(trifluoromethyl)pyridin-2-yl)methyl)-2-oxooxazolidine-5-carboxamide]: the IC50 was 54 nM.

Turning to `O=C1NC[C@@H](C(=O)NC(CC2CCCCC2)c2ccc(F)c(Cl)c2F)O1` (stereo partly drawn) [Example 67, (S)-N-(1-(3-chloro-2,4-difluorophenyl)-2-cyclohexylethyl)-2-oxooxazolidine-5-carboxamide], inhibition was half-maximal at 21 nM (IC50). This IC50 lies about 2.6-fold lower than the previous one.

On to `O=C1NC[C@@H](C(=O)NC(c2ccc(Cl)cc2)c2ccnc(C(F)(F)F)c2)O1` (some centres unmarked) [Example 34], for which the IC50 was 94 nM. This IC50 is about 4.5-fold higher than that of the compound before.

In turn, `O=C1NC[C@@H](C(=O)NC(Cc2ccc(Cl)cc2)c2ccc(OC(F)(F)F)cc2)O1` (stereo partly drawn) [Example 68, (5S)-N-(2-(4-chlorophenyl)-1-(4-(trifluoromethoxy)phenyl)ethyl)-2-oxooxazolidine-5-carboxamide] gave an IC50 of 246 nM.

Compound `O=C1NC[C@@H](C(=O)NC(c2ccc(F)c(Cl)c2)c2ccc(F)c(OCC(F)(F)F)n2)O1` (single isomer, unassigned) [Example 1A, (S)—N—((R or S)-(3-chloro-4-fluorophenyl)(5-fluoro-6-(2,2,2-trifluoroethoxy)pyridin-2-yl)methyl)-2-oxooxazolidine-5-carboxamide] showed an IC50 of 46 nM.

In turn, `O=C1NC[C@@H](C(=O)NC(c2ccc(OC(F)(F)F)c(Cl)c2)c2cnn(C(F)(F)F)c2)O1` (single isomer, unassigned) [Example 53B, (S)-N-((R or S)-(3-chloro-4-(trifluoro-methoxy)phenyl)(1-(trifluoromethyl)-1H-pyrazol-4-yl)methyl)-2-oxooxazolidine-5-carboxamide] yielded an IC50 of 1.2 nM.

Consider `O=C1NC[C@@H](C(=O)NC(c2ccc(F)c(Cl)c2F)[C@@H]2CC[C@@H](C(F)(F)F)CO2)O1` (single isomer, unassigned) [Example 9B], for which 9.5 nM corresponded to half-maximal inhibition (IC50).

In turn, `O=C1NC[C@@H](C(=O)NC(c2ccc(Cl)cc2)c2n[nH]c3ccccc23)O1` (single isomer, unassigned) [Example 15A, (S)-N-((R or S)-(4-chlorophenyl)(1H-indazol-3-yl)methyl)-2-oxooxazolidine-5-carboxamide] gave an IC50 of 57 nM.

For `O=C1NC[C@@H](C(=O)NC(c2ccc(F)c(Cl)c2F)[C@@H]2CC[C@@H](C(F)(F)F)CO2)O1` (single isomer, unassigned) [Example 9A], inhibition was half-maximal at 7.3 nM (IC50).

As to `O=C1NC[C@@H](C(=O)NC(c2ccc(Cl)cc2)c2nc(C(F)(F)F)cs2)O1` (single isomer, unassigned) [Example 12B, (S)-N-((R or S)-(4-chlorophenyl)(4-(trifluoromethyl)thiazol-2-yl)methyl)-2-oxooxazolidine-5-carboxamide], the IC50 amounted to 323 nM.

`O=C1NC[C@@H](C(=O)NC(c2ccc(F)c(Cl)c2F)[C@@H]2CC[C@@H](C(F)(F)F)CO2)O1` (single isomer, unassigned) [Example 9D] returned an IC50 of 2420 nM.
